The source of these data is patent US20200038513A1, “MODULATORS OF FAK PROTEOLYSIS AND ASSOCIATED METHODS OF USE” (ARVINAS OPERATIONS, INC., priority 2018, published 2020).

One experiment has as its system p-Akt (S473). The experiment is described as follows: Fak downstream signaling, western blot in PC3 cells. Format: cell-based, human. The note with it: serum deprived PC3 cells, 24 h. The procedure: (§1) If not indicated otherwise, cells were seeded and grown to 80% confluency and were treated with compound or control for 24 hours. Subsequently, the growth media was removed and the cells lysed by the addition of lysis buffer (25 mM Tris, pH 7.4; 1% NP-40, 0.25% deoxycholate, 1 mM sodium vanadate, 10 mM sodium fluoride, 10 mM sodium pyrophosphate, 20 mM β-glycerophosphate and 1× complete EDTA-free protease inhibitor cocktail (Roche)). After 20 minutes the mixture was spun down at 16,000×g for 10 minutes at 4° C. to pellet insoluble materials. Protein concentration of supernatants were determined via BCA assay (Thermo Fisher) before addition of NuPAGE sample buffer containing 5% β-Me and boiling at 95° C. for 10 minutes. Equal amounts of protein were subjected to SDS-PAGE and subsequent electrophoretic transfer onto nitrocellulose membrane. Rabbit antibodies were purchased from Cell Signaling: Fak (3285), p-Fak (3283), p-Paxillin (2541), p-Akt (S473)(4060), GAPDH (2118), Androgen Receptor (5153), p-Src(Y527)(2105), p-S6RP (2215). Mouse antibodies were purchased from Cell Signaling: tubulin (3873), S6RP (2317). Secondary antibody ∝-rabbit (31460) or ∝-mouse (31444) was coupled to horseradish peroxidase and purchased from Thermo Fisher. Immunoblots were developed using enhanced chemiluminescence and visualized using a Bio-Rad Chemi-Doc MP Imaging System and quantitated with Image Lab v.5.2.1 software (Bio-Rad Laboratories). Data analysis and statistics was performed using Prism 7.0 (GraphPad).
(§2) Fak levels are undetectable at concentrations of 100 nM through 1 μM of exemplary compound 102, and slightly rebound at concentrations of 5 μM (10%) and 10 μM (27%) due to an observed hook effect. […] Paxillin, a downstream target of the Fak-Src complex, has been associated with cell migration. […] Akt is a kinase that is tied to the Fak signaling cascade via PI3K, but can be activated through other pathways as well. […] A maximum p-Akt suppression of 93% is observed at 1 μM of exemplary compound 102. […] A similar differential can be observed when exemplary compound 102 is compared to its non-degrading diastereomer exemplary compound 106 (FIGS. 9A-9F and 10A-10D). These differences are the result of the distinct MOA Fak degraders are able to provide compared to inhibitors.

The next experiment relates to p-paxillin. Described as above. The format is cell-based, human. The note with it: serum deprived PC3 cells, 24 h. The method, then:
as §1, §2

For `CNC(=O)c1ccc(Nc2ncc(C(F)(F)F)c(NCc3nccnc3N(C)S(C)(=O)=O)n2)cc1` [Defactinib, defactinib, reference compound], the “maximum reduction of p-Akt” value in the experiment with p-Akt (S473) (10 μM) is 88%. The “maximum reduction of p-paxillin levels” value in the experiment on p-paxillin (10 μM) is given as 62%.

For the compound `Cc1ncsc1-c1ccc(CNC(=O)[C@@H]2C[C@@H](O)CN2C(=O)[C@@H](NC(=O)CCOCCOc2ccc(Nc3ncc(C(F)(F)F)c(NCc4cccc(N(C)S(C)(=O)=O)c4)n3)cc2)C(C)(C)C)cc1` [Compound 102, (2S,4R)-1-((S)-3,3-dimethyl-2-(3-(2-(4-((4-((3-(N-methylmethylsulfonamido)benzyl)amino)-5-(trifluoromethyl)pyrimidin-2-yl)amino)phenoxy)ethoxy)propanamido)butanoyl)-4-hydroxy-N-(4-(4-methylthiazol-5-yl)benzyl)pyrrolidine-2-carboxamide], the “maximum p-Akt suppression” value in the experiment on p-Akt (S473) (1 μM) is listed as 93%. Also, in the experiment with p-Akt (S473) (increasing concentrations), the “effect on p-Akt (S473) (in words)” value was “significant at all treatment concentrations”. For the same compound, in the experiment with p-paxillin (above 50 nM), the “reduction of p-paxillin levels” value is 85-90%.
